The source of these data is patent publication US11408885B2, “Compositions and multiplex assays for characterizing active proteases and their inhibitors” (Massachusetts Institute of Technology, priority 2017, dated 2022).

By IC50 is commonly meant the point on the concentration scale where inhibition reaches its midpoint.

The test system of assay [1] is aggregate metalloprotease activity of conditioned medium. The experiment in a line: FRET substrate cleavage in conditioned media of cell cultures. The assay is classed as biochemical, human. The method, then: Eight conditioned mediums were assayed, each tested in two complete biological replicates (n=2), from these cell cultures: four endometrial related cell populations including (1) primary endometrial stromal cells (pESC), (2) telomerase-immortalized human endometrial stromal cells (tHESC) (Krikun et al., Endocrinology, 145(5):2291-6 (2004)), (3) an adenocarcinoma endometrial epithelial cell line, Ishikawa, and (4) an epithelial line derived from an endometriosis lesion, 12z; three canonical cancer cell lines including (5) A549, (6) […], and (7) HT1080; as well as (8) human telomerase reverse transcriptase (hTERT) immortalized mesenchymal stem cell line (MSC).
Conditioned supernatant was prepared: collected at 12 h, spun down at 200 g for 5 min to remove debris, and immediately flash-frozen. For FRET-substrate assays involving this supernatant, final reactions were composed of a 2:1:1 mixture of […] substrate diluted from 5 mMDMSO stock into phosphate buffered saline, 4 nM active MMP7 diluted in ‘MMP buffer’, and thawed supernatant.
Validation of HxBP-Bt probe binding to the active sites of proteases in conditioned media was performed based on the FRET-based study as described in Example 1, without the addition of MMP capture beads. […]

Another assay concerns the target T1, MMP1 (Homo sapiens, UniProt P03956).
T1 sequence (P03956 100-469): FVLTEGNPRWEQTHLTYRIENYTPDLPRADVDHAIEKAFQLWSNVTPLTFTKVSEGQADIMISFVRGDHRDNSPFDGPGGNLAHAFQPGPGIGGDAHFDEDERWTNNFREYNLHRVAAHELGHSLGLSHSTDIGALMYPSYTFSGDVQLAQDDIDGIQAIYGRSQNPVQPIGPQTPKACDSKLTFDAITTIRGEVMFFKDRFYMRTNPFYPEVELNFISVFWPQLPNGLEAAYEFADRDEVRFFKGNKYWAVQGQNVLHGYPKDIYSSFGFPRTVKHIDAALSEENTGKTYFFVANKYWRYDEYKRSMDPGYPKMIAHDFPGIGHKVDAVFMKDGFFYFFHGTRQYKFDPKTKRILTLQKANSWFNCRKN
Put plainly: FRET substrate cleavage by recombinant MMP, inhibition by activity-based probe. The arrangement: purchased Peprotech. Format: biochemical. Particulars: FRET substrate PEPDAB008 10 μM, read-out: IC50, inhibition of substrate cleavage of active MMP. The text has this: (§1) The binding of an activity-based probe, e.g., HxBP-Bt, to the active site of an MMP (as shown in FIG. 1A) would effectively reduce (or inhibit) the ability of such MMP to cleave its substrate. […] This correlation should also provide an IC50 value to measure the sensitivity/potency of the MAMBI system to bind, and thereby quantify, active MMPs. […] Fluorescence resonance energy transfer (FRET) technique is used to determine if a substrate is cleaved by pre-labeling two parts of a substrate molecule with a donor chromophore and an acceptor chromophore, respectively, and measuring the energy transfer efficiency from the donor to the acceptor chromophore to determine if two fluorophores are within a certain distance of each other, i.e. the substrate is intact and uncleaved. Here, HxBP-Bt bound MMP samples were mixed with chromophore-labeled substrate peptides in 384-well OptiPlates® at 37° C. using timelapse fluorimetry in the Spectromax® M3 and M2e fluorimeters (Molecular Devices). The fluorescence was monitored by plate reader. In general, readings measured fluorescence every 20 minutes for roughly five hours and the reported rate of increase in fluorescence was calculated from fitting a linear portion of this increase including at least 4 data points and subtracting the average increase in background, protease-free conditions. […] Reaction velocities were calculated from linear reaction periods from raw fluorescence value time courses. […] Relative rates of FRET substrate cleavage among samples with the addition of HxBP-Bt were quantified and compared with the rates without HxBP-Bt. Activities of recombinant MMPs 1, 7, 8, 12 and 13, in the presence or absence of HxBP-Bt probe, were characterized with […]008 (Dabcyl-[…]); MMPs 2 and 9 with […]011 (Dabcyl-[…]) and MMPs 3 and 10 with […]052 (Dabcyl-[…]). […] These IC50 values were used to estimate binding off-rates in the computational model. IC50 of the inhibitor was calculated by fitting the resulting dose-dependent data with the PRISM software (GraphPad, USA)

Another assay concerns the target T2, MMP2 (Homo sapiens, UniProt P08253).
T2 sequence (P08253 110-660): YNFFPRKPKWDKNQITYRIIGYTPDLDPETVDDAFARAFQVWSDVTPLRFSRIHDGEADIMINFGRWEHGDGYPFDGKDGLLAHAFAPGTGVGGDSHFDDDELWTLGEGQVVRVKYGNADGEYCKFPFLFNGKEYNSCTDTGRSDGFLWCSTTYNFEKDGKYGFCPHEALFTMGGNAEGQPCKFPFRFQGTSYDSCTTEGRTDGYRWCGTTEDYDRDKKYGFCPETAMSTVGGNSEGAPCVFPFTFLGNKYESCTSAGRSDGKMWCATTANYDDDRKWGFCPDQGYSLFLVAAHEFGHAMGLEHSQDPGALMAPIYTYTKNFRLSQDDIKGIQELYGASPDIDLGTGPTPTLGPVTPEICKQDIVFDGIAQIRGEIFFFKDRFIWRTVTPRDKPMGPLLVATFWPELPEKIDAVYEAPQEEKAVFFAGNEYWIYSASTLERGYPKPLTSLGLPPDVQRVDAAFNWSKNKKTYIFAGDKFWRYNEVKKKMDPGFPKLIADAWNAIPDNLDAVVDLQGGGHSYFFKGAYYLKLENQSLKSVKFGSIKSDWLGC
The description is as above. The assay is classed as biochemical. On the set-up: purchased Peprotech. Particulars: FRET substrate PEPDAB011 10 μM, read-out: IC50, inhibition of substrate cleavage of active MMP.
Description: as §1

In another assay the target is MMP3 (Homo sapiens, UniProt P08254). The description is as above. Format: biochemical. On the set-up: purchased Peprotech. Particulars: FRET substrate PEPDAB052 10 μM, read-out: IC50, inhibition of substrate cleavage of active MMP.
Description: as §1

MMP3, sequence (P08254 100-477): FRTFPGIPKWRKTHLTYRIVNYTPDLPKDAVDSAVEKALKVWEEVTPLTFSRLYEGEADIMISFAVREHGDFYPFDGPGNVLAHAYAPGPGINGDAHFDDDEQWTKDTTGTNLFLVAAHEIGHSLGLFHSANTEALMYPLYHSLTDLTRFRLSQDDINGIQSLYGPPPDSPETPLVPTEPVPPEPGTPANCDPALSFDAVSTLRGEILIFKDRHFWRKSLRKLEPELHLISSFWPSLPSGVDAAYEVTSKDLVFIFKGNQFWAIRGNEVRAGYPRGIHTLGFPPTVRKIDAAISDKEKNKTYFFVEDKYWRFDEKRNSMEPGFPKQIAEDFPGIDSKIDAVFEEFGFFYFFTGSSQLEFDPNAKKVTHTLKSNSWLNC

For `CC(C)CC(C(=O)NC(Cc1ccc(C(=O)c2ccccc2)cc1)C(=O)NCCOCCOCCOCC(=O)NCC(C)(C)SSC(C)(C)CNC(=O)CCCCC1SCC2NC(=O)NC21)C(O)C(=O)NO` (centres unmarked) [HxBP-Bt, biotin-tagged hydroxamate benzophenone (HxBP-Bt) probe], the “effect on substrate cleavage (bulk protease activity)” value in assay [1] (eight conditioned media normalized to 1000 μg/mL, 500 nM HxBP-Bt) is “greatly deceased the substrate cleavage ability”; in assay [1] (eight conditioned media, 1500 nM HxBP-Bt, in some cases), “further decreased the protease activities”. Also, the IC50 came to 2.1 nM on MMP1, 3.3 nM at MMP2 and 61 nM on MMP3.
